Patent US20220142941A1, “COMBINATION THERAPEUTIC REGIMENS WITH 1,6-DIBROMO-1,6-DIDEOXY-DULCITOL” (Eleison Pharmaceuticals LLC, priority 2019, published 2022)

Columns and labels:
Assay in all cases: DBD combination treatment, viability enhancement factor
Type in all cases: cell-based, human
GS289NS = GS289NS (p15 + p16), labelled therapy combined with crystalline DBD polymorph;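 note: DBD at its own IC50 and half IC50 determined at Day 5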
Protocol: (§1) Crystalline DBD polymorph treatment was combined with chemotherapy, radiotherapy and targeted inhibitors to determine whether the crystalline DBD polymorph form could: enhance efficacy of the conventional therapies; enhance efficacy when combined with newer ‘targeted’ therapies; or would make (a subset of) cultures more sensitive to this treatment.
(§2) Therefore, cultures were treated with: • a.

GS257NS = GS257NS (p16 + p17), labelled therapy combined with crystalline DBD polymorph;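 note: DBD at its own IC50 and half IC50 determined at Day 5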
Protocol: as §1, §2

GS104periNS = GS104periNS (p21 + p22), labelled therapy combined with crystalline DBD polymorph
Protocol: as §1, §2

GS279coreNS = details: Day 5; GS279coreNS (p12 + p13); labelled therapy combined with crystalline DBD polymorph
Protocol: as §1, §2

GS249NS = GS249NS (p17), labelled therapy combined with crystalline DBD polymorph
Protocol: as §1, §2

GS224NS = GS224NS (p17), labelled therapy combined with crystalline DBD polymorph
Protocol: as §1, §2

GS365NS = GS365NS (p17 + p16), labelled therapy combined with crystalline DBD polymorph
Protocol: as §1, §2

GS279periNS = GS279periNS (p16 + p15), labelled therapy combined with crystalline DBD polymorph;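 note: DBD at its own IC50 and half IC50 determined at Day 5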
Protocol: as §1, §2

GS245NS = GS245NS (p16 + p15), labelled therapy combined with crystalline DBD polymorph
Protocol: as §1, §2

GS281NS = GS281NS (p15), labelled therapy combined with crystalline DBD polymorph
Protocol: as §1, §2

GS184NS = GS184NS (p18 + p19), labelled therapy combined with crystalline DBD polymorph;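 note: DBD at its own IC50 and half IC50 determined at Day 5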
Protocol: as §1, §2

GS102periNS = GS102periNS (p20 + p21), labelled therapy combined with crystalline DBD polymorph
Protocol: as §1, §2

GS304NS = GS304NS (p16), labelled therapy combined with crystalline DBD polymorph
Protocol: as §1, §2

GS359NS = GS359NS (p15 + p14), labelled therapy combined with crystalline DBD polymorph
Protocol: as §1, §2

GS186coreNS = GS186coreNS (p18), labelled therapy combined with crystalline DBD polymorph
Protocol: as §1, §2

GS261NS = GS261NS (p13), labelled therapy combined with crystalline DBD polymorph
Protocol: as §1, §2

GS324coreNS = GS324coreNS (p19), labelled therapy combined with crystalline DBD polymorph
Protocol: as §1, §2

GS323periNS = details: Day 5; GS323periNS (p20 + p19); labelled therapy combined with crystalline DBD polymorph
Protocol: as §1, §2

GS186periNS = GS186periNS (p15), labelled therapy combined with crystalline DBD polymorph
Protocol: as §1, §2

GS203NS = details: Day 8; GS203NS (P19 + p18); labelled therapy combined with crystalline DBD polymorph
Protocol: as §1, §2

SMILES | enhancement factor (viability % of most effective monotherapy divided by viability % of combination) (GS289NS; Day 5) | enhancement factor (viability % of most effective monotherapy divided by viability % of combination) (GS289NS; Day 8) | enhancement factor (viability % of most effective monotherapy divided by viability % of combination) (GS257NS; Day 5) | enhancement factor (viability % of most effective monotherapy divided by viability % of combination) (GS257NS; Day 8) | enhancement factor (viability % of most effective monotherapy divided by viability % of combination) (GS104periNS; Day 8) | enhancement factor (viability % of most effective monotherapy divided by viability % of combination) (GS279coreNS) | enhancement factor (viability % of most effective monotherapy divided by viability % of combination) (GS249NS; Day 5) | enhancement factor (viability % of most effective monotherapy divided by viability % of combination) (GS224NS; Day 5) | enhancement factor (viability % of most effective monotherapy divided by viability % of combination) (GS224NS; Day 8) | enhancement factor (viability % of most effective monotherapy divided by viability % of combination) (GS365NS; Day 5) | enhancement factor (viability % of most effective monotherapy divided by viability % of combination) (GS365NS; Day 8) | enhancement factor (viability % of most effective monotherapy divided by viability % of combination) (GS279periNS; Day 5) | enhancement factor (viability % of most effective monotherapy divided by viability % of combination) (GS279periNS; Day 8) | enhancement factor (viability % of most effective monotherapy divided by viability % of combination) (GS245NS; Day 5) | enhancement factor (viability % of most effective monotherapy divided by viability % of combination) (GS245NS; Day 8) | enhancement factor (viability % of most effective monotherapy divided by viability % of combination) (GS281NS; Day 5) | enhancement factor (viability % of most effective monotherapy divided by viability % of combination) (GS281NS; Day 8) | enhancement factor (viability % of most effective monotherapy divided by viability % of combination) (GS184NS; Day 5) | enhancement factor (viability % of most effective monotherapy divided by viability % of combination) (GS184NS; Day 8) | enhancement factor (viability % of most effective monotherapy divided by viability % of combination) (GS102periNS; Day 5) | also measured
C[C@]1(c2nc3c(C(N)=O)cccc3[nH]2)CCCN1 [ABT-888] | 1.112 | 1.113 | 0.922 | 1.053 | 1.810 | 1.321 | 2.994 | 1.105 | 1.201 | 1.096 | 1.052 | 1.146 | 1.102 | 1.256 | 0.991 | 0.933 | 0.812 | 1.084 | 1.044 | 1.248 | enhancement factor (viability % of most effective monotherapy divided by viability % of combination) (GS104periNS; Day 5): 1.175; enhancement factor (viability % of most effective monotherapy divided by viability % of combination) (GS249NS; Day 8): 5.030; enhancement factor (viability % of most effective monotherapy divided by viability % of combination) (GS102periNS; Day 8): 1.055; enhancement factor (viability % of most effective monotherapy divided by viability % of combination) (GS304NS; Day 5): 1.245; enhancement factor (viability % of most effective monotherapy divided by viability % of combination) (GS304NS; Day 8): 1.933; enhancement factor (viability % of most effective monotherapy divided by viability % of combination) (GS359NS; Day 5): 1.175; enhancement factor (viability % of most effective monotherapy divided by viability % of combination) (GS359NS; Day 8): 1.148; enhancement factor (viability % of most effective monotherapy divided by viability % of combination) (GS186coreNS; Day 5): 1.394; enhancement factor (viability % of most effective monotherapy divided by viability % of combination) (GS186coreNS; Day 8): 1.359; enhancement factor (viability % of most effective monotherapy divided by viability % of combination) (GS261NS; Day 5): 1.388; enhancement factor (viability % of most effective monotherapy divided by viability % of combination) (GS261NS; Day 8): 1.631; enhancement factor (viability % of most effective monotherapy divided by viability % of combination) (GS324coreNS; Day 5): 1.275; enhancement factor (viability % of most effective monotherapy divided by viability % of combination) (GS324coreNS; Day 8): 1.322; enhancement factor (viability % of most effective monotherapy divided by viability % of combination) (GS323periNS): 1.106; enhancement factor (viability % of most effective monotherapy divided by viability % of combination) (GS186periNS; Day 5): 1.134; enhancement factor (viability % of most effective monotherapy divided by viability % of combination) (GS186periNS; Day 8): 1.319
C/C(=C\C(=O)Nc1ccccc1C(=O)O)c1ccc2ccccc2c1 [BIBR1532] | 1.383 | 1.879 | 1.322 | 2.162 | 1.247 | 1.526 | 0.909 | 0.969 | 0.469 | 1.767 | 2.954 | 1.361 | 1.214 | 1.364 | 1.936 | 0.641 | 2.457 | 1.752 | 1.367 | 1.414 | enhancement factor (viability % of most effective monotherapy divided by viability % of combination) (GS203NS): 1.110; enhancement factor (viability % of most effective monotherapy divided by viability % of combination) (GS102periNS; Day 8): 2.661; enhancement factor (viability % of most effective monotherapy divided by viability % of combination) (GS304NS; Day 8): 1.065; enhancement factor (viability % of most effective monotherapy divided by viability % of combination) (GS359NS; Day 5): 2.499; enhancement factor (viability % of most effective monotherapy divided by viability % of combination) (GS359NS; Day 8): 1.168; enhancement factor (viability % of most effective monotherapy divided by viability % of combination) (GS186coreNS; Day 5): 1.787; enhancement factor (viability % of most effective monotherapy divided by viability % of combination) (GS186coreNS; Day 8): 1.498; enhancement factor (viability % of most effective monotherapy divided by viability % of combination) (GS324coreNS; Day 5): 1.282; enhancement factor (viability % of most effective monotherapy divided by viability % of combination) (GS324coreNS; Day 8): 1.713; enhancement factor (viability % of most effective monotherapy divided by viability % of combination) (GS323periNS): 0.959; enhancement factor (viability % of most effective monotherapy divided by viability % of combination) (GS186periNS; Day 5): 2.900; enhancement factor (viability % of most effective monotherapy divided by viability % of combination) (GS186periNS; Day 8): 1.010
